Source: patent US20110028513A1, “METHOD FOR TREATING NEUROLOGICAL DISORDERS WITH IMIDAZOLIUM AND IMIDAZOLINIUM COMPOUNDS” (priority 2008, published 2011)
“Also recorded” adds a separate entry of the source.

What was measured:
transgenic GFAP-GFP mice [1] = assay: In vivo retinal imaging (scanning laser ophthalmoscope) of GFP fluorescence in the optic disc of 2′-CH3-MPTP-treated mice
Experimental: (§1) The generation and genotyping of the transgenic GFAP (glial fibrillary acidic protein)-GFP (green fluorescent protein) mice were performed as previously described (Zhuo et al., 1997, See PCT Application No. PCT/SG2008/000159). Adult mice (8-10 weeks old) in the Friend virus B-Type (FVB/N) background were used in this study. Animal husbandry was provided by the Biological Resource Center (BRC) of Biopolis, Singapore. The experimental protocol for this study was approved by the Institutional Animal Care and Use Committee at BRC.
The synthesis of DBZIM has been described. (See PCT Application No. SG2009/000037, Zhang et al., 2007). The structure of DBZIM is illustrated in FIG. 1. […] The dosing regime is illustrated in FIG. 2. Mice in the DBZIM/neurotoxicant-treated group received an intraperitoneal (ip) injection of DBZIM (25 mg/kg in saline) 24 h before and after administering 4 ip injections of 2′-CH3-MPTP (15 mg/kg in saline; once every 2 h). Mice in the neurotoxicant-treated group were injected with 2′-CH3-MPTP only (4×15 mg/kg in saline; ip; once every 2 h). For each mouse in the DBZIM/neurotoxicant-treated group (n=5) and neurotoxicant-treated group (n=5), saline was used as a vehicle for the control group (n=6). Retinal imaging was performed before and after treatment.
Mice were anesthetized by ip injections with 0.15 ml/10 g body weight of Avertin (1.5% 2,2,2-tribromoethanol; T48402) purchased from Sigma-Aldrich (St. Louis, Mo., USA). Their pupils were dilated with a drop of 0.5% Cyclogyl® sterile ophthalmic solution (cyclopentolate hydrochloride, Alcon®, Puurs, Belgium). Custom-made polymethylmethacrylate (PMMA) hard contact lenses (Cantor & Nissel, Northamptonshire, UK) were used to avoid dehydration of the cornea. Careful examination by an eye specialist before scanning laser ophthalmoscope (SLO) imaging ruled out the presence of any corneal or lens opacity.
The second version of Heidelberg Retina Angiograph (HRA II) SLO (Heidelberg Engineering, Dossenheim, Germany) was modified for use on mice. SLO is an imaging technique based on the scanning of the fundus with a laser beam from a point source; the reflected light is detected by a photomultiplier. The incident and reflected light beams follow a co-axial path. Therefore, more light can pass through small eyes with SLO than with conventional fundus cameras. […]
Unlike magnetic resonance images (MRI) and in vitro fluorescent-labeled cell images, the in vivo fluorescence images of transgenic GFAP-GFP expression in the mouse retina have very low signal-to-noise ratio (SNR), which makes the quantitative analysis of the transgene expression difficult. […]

transgenic GFAP-GFP mice [2] = assay: Retinal whole-mount and cross-section immunohistochemistry (GFP/GFAP) for 2′-CH3-MPTP-induced gliosis; format: in vivo; conditions: DBZIM 25 mg/kg ip plus 2′-CH3-MPTP
Experimental: as §1
(§2) The synthesis of DBZIM has been described. (See PCT Application No. SG2009/000037, Zhang et al., 2007). The structure of DBZIM is illustrated in FIG. 1. […] The dosing regime is illustrated in FIG. 2. Mice in the DBZIM/neurotoxicant-treated group received an intraperitoneal (ip) injection of DBZIM (25 mg/kg in saline) 24 h before and after administering 4 ip injections of 2′-CH3-MPTP (15 mg/kg in saline; once every 2 h). […]
(§3) After perfusion with 1× PBS, followed by 4% fresh paraformaldehyde (in 1× PBS, pH 7.4), the mouse brains were harvested and the eyes enucleated. […] The retinas, free of the choroid and sclera tissues, were whole-mounted on a glass slide with Vectorshield mounting medium for fluorescence (Vector Laboratories, Inc., Burlingame, Calif., USA; H1000). […]

transgenic GFAP-GFP mice [3] = assay: Brain cryosection immunohistochemistry (GFP/TH) of striatum and SNpc after 2′-CH3-MPTP; format: in vivo; conditions: DBZIM 25 mg/kg ip plus 2′-CH3-MPTP
Experimental: as §1, §2, §3

[Br-].c1ccc(Cn2cc[n+](Cc3ccccc3)c2)cc1 [DBZIM, 1,3-bisbenzylimidazolium bromide]
change in GFP fluorescence (fluorescence intensity) of the optic disc versus saline control (transgenic GFAP-GFP mice [1]; DBZIM 25 mg/kg ip 24 h before and after 4 x 15 mg/kg ip 2′-CH3-MPTP, quantified by algorithm, FIG. 4, day 4): no significant change; also recorded: prevented the 2′-CH3-MPTP-induced retinal toxicity
apparent retinal neurotoxicity in composite retinal images (transgenic GFAP-GFP mice [1]; DBZIM 25 mg/kg ip plus 2′-CH3-MPTP, FIG. 3): no apparent neurotoxicity
gliosis in retinal whole-mounts (GFP green and GFAP red fluorescence, nerve fiber layer) (transgenic GFAP-GFP mice [2]; FIG. 5): attenuated both green and red fluorescence to the basal levels; also recorded: significantly attenuates the gliosis
gliosis in retinal astrocytes and Müller cells (retinal cross-sections) (transgenic GFAP-GFP mice [2]; FIG. 6): reduced the neurotoxicant-induced gliosis to close to the basal level; also recorded: significantly attenuated
DA neuron depletion in the SNpc (TH immunoreactivity) (transgenic GFAP-GFP mice [3]; SNpc, FIG. 8): A significant portion of the DA neurons is protected
striatal gliosis (GFP signal) (transgenic GFAP-GFP mice [3]; striatum, FIG. 7): cut down the gliosis in the striatum to a basal level; also recorded: significantly attenuates the neurotoxicity

Cc1ccccc1C1=CCN(C)CC1 [2′-CH3-MPTP, methyl-4(2′-methylphenyl)-1,2,3,6-tetrahydropyridine, reference compound]
fluorescence intensity (FI) in the optic disc over saline control, in words (transgenic GFAP-GFP mice [1]; 2′-CH3-MPTP alone, 4 x 15 mg/kg ip, P<0.05, FIG. 4): significant increase
increase in GFP fluorescence of the optic disc (transgenic GFAP-GFP mice [1]; neurotoxicant alone, 4 x 15 mg/kg ip once every 2 h, versus saline control, FIG. 4): 36%
